The text below walks through data of US20170114060A1 (priority 2014, published 2017).

“Also recorded” adds a separate entry of the source.

Data set [1] deals with CRAC/Orai1 channels (Homo sapiens, UniProt Q96D31). Type of data set: cell-based.
Data set [2] has as its system Ebola VP40 (eVP40) VLPs. Type of data set: cell-based.
The test system of data set [3] is vesicular stomatitis virus (VSV). It is filed as cell-based.
Data set [4] has as its system VeroE6 cells.
Data set [5] concerns Junin virus (Candid-1 strain). Type of data set: cell-based.
For data set [6], the system named is VP40-APT/PY VLP budding. Type of data set: cell-based.
Data set [7] deals with Marburg VP40 (mVP40) VLPs. It is filed as cell-based.
For data set [8], the system named is HEK293T cells.
The subject of data set [9] is HEK293T cells. This is another data set of the same source.
The subject of data set [10] is MDCK cells.
Data set [11] deals with Influenza Virus A. It is filed as cell-based.
Data set [12] concerns HIV-1. Type of data set: cell-based.
The test system of data set [13] is Ebola VP40 induced intracellular calcium increase. It is filed as cell-based.
For data set [14], the system named is LASV. Type of data set: cell-based, Lassa fever virus.
Data set [15] concerns JUNV. Type of data set: cell-based, Junin virus.
The subject of data set [16] is EBOV. It is filed as cell-based, Ebola virus.
Data set [17] concerns MARV. It is filed as cell-based, Marburg virus.
Data set [18] relates to eVP40 GFP expressed in HEK cells. Type of data set: cell-based.
Data set [19] has as its system retrovirus. The settings on record: cited from earlier work.

Chain of CRAC/Orai1 channels (Q96D31 whole entry): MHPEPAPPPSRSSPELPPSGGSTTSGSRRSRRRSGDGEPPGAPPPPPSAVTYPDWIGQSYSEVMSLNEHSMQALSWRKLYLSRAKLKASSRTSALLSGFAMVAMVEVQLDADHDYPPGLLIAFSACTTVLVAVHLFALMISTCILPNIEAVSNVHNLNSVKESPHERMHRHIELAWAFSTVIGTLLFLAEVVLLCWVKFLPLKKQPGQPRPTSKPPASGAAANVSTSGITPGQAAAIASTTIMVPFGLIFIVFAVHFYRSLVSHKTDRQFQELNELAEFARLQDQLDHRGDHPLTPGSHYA

Take `NCCOB(c1ccccc1)c1ccccc1` [2-APB, 2-aminoethoxydiphenylborate]: in data set [1], the “concentration that fully inhibited CRAC channels” value worked out at 50 µM and the “inhibition of store-operated Ca2+ entry via CRAC/Orai channels” value is listed as “block store operated Ca^2+ influx; also recorded: blocked; also recorded: blocks Ca^2+ entry following Tg stimulation without affecting its release from the ER; also recorded: inhibition of Ca^2+ entry via CRAC channels”. For the same compound, in data set [2], the “effect on cellular eVP40 expression/accumulation” value is given as “neither 2-APB nor Synta66 inhibited cellular accumulation”; the “inhibition of eVP40 VLP formation” value was “inhibited eVP40 and mVP40 VLP budding”. Further, in data set [3], the “effect on cellular expression of VSV M protein” value is listed as “only a slight effect on cellular M protein expression; also recorded: little to no effect on cellular expression of VSV M protein” and the “inhibition of live VSV budding / titers” value is given as “inhibited live VSV viral particle budding; also recorded: dose-dependent inhibition of VSV budding”. In data set [4], the “viability of cells under conditions mimicking infection experiments” value is recorded as “without effect on the viability of cells”. In [5], the “decrease in the number of foci formed by virions released from cells” value is listed as 10 fold and the “reduction of live Junin virus (Candid-1) foci / budding” value is on record as “a similar dose-dependent decrease in JUNV budding”. In addition, the “sensitivity of Alix Bro1-V rescue of VLP production” value in data set [6] is 2-APB sensitive. Further, in [7], the “effect on cellular mVP40 accumulation” value is recorded as “neither 2-APB nor Synta66 inhibited cellular accumulation”; the “inhibition of mVP40 VLP budding” value is “inhibited eVP40 and mVP40 VLP budding”.
With `c1ccc(C(c2ccccc2)c2noc(C3CCNCC3)n2)cc1` [FC-2121], the “inhibition of store-operated Ca2+ entry via CRAC/Orai channels” value in data set [1] is “partial dose-dependent inhibition of Tg-induced calcium entry; also recorded: can block calcium influx into cells via Orai; also recorded: reduce Orai-mediated calcium entry”. Further, in data set [2], the “inhibition of eVP40 VLP formation” value is “a corresponding inhibition of VLP formation; also recorded: successful inhibition of Ebola VP40 VLP production”. The cytotoxicity result in [8] and in data set [10] was “not cytotoxic” throughout. For the same compound, the “cell viability / cytotoxicity (MTT)” value in data set [9] is listed as “without cell toxicity”. The “reduction of live Influenza Virus A budding” value in [11] is “reduce live Influenza Virus A budding”.
With `Cc1c(CC(C(=O)O)c2ccccc2)nn(-c2ccccc2)c1-c1ccccc1` (stereo not drawn) [FC-2122, 3-(4-methyl-1,5-diphenyl-1H-pyrazol-3-yl)-2-phenylpropanoic acid], in data set [1], the “inhibition of store-operated Ca2+ entry via CRAC/Orai channels” value is reported as “partial dose-dependent inhibition of Tg-induced calcium entry; also recorded: inhibits Orai-mediated calcium entry; also recorded: can block calcium influx into cells via Orai”. Further, in data set [2], the “cellular eVP40 expression” value was “not different from mock treated cells”, the “concentrations at which VP40 expression inhibited” value is listed as “above 10 μM” and the “inhibition of eVP40 VLP formation” value is “a corresponding inhibition of VLP formation; also recorded: decreased to a comparable extent as by 2-APB; also recorded: inhibits; also recorded: successful inhibition of Ebola VP40 VLP production”. In addition, the cytotoxicity result in data set [8] is recorded as “not cytotoxic”. The “cell viability / cytotoxicity (MTT)” value in data set [9] is “without cell toxicity”. In data set [10], the cytotoxicity entry is listed as “not cytotoxic”. Besides, in [11], the “reduction of live Influenza Virus A budding” value is reported as “reduce live Influenza Virus A budding”. Also, the “inhibition of budding of live HIV-1” value in [12] is recorded as “did not inhibit budding of live HIV-1”.
In the case of `Cc1cc(CC(C(=O)O)c2ccc(Cl)cc2)nn1-c1ccc(Cl)cc1` (stereo not drawn) [FC-2399, 2-(4-Chloro-phenyl)-3-[1-(4-chloro-phenyl)-5-methyl-1H-pyrazol-3-yl]-propionic acid], the “inhibition of store-operated Ca2+ entry via CRAC/Orai channels” value in data set [1] was “reduce Orai-mediated calcium entry”. For the same compound, the “inhibition of live VSV budding / titers” value in data set [3] is given as “significantly reduced budding of live Vesicular Stomatitis Virus in vitro in a dose-dependent manner”. In addition, the “reduction of live Influenza Virus A budding” value in [11] is recorded as “reduce live Influenza Virus A budding”. In addition, the “inhibition of budding of live HIV-1” value in data set [12] was “reduces budding of live HIV-1”.
Consider `CC(=O)N[C@@H](CS)C(=O)O` [NAC, N-acetyl cysteine], for which the “block of Ebola VP40 induced intracellular calcium increase” value in data set [13] is “block the Ebola VP40 induced intracellular calcium increase”.
Take `Cc1cc(Cc2cc(C)cc(C(C)(C)C)c2O)c(O)c(Cc2cc(C)cc(C(C)(C)C)c2O)c1` [NSC 62914]: in data set [13], the “block of Ebola VP40 induced intracellular calcium increase” value was “block the Ebola VP40 induced intracellular calcium increase”.
In the case of `CC1=C(c2cnc(NC(=O)c3c(F)cccc3F)cn2)CN(c2ncc(C)s2)CC1` [R02959, 2,6-difluoro-N-{5-[4-methyl-1-(5-methyl-thiazol-2-yl)-1,2,5,6-tetrahydro-pyridin-3-yl]-pyrazin-2-yl}-benzamide], in data set [1], the “inhibition of store-operated Ca2+ entry via CRAC/Orai channels” value is listed as “blocks Ca^2+ entry following Tg stimulation without affecting its release from the ER” and the “potency as inhibitor of Orai1 relative to 2-APB or Synta66” value is on record as around 10 fold. The “inhibition of Ca2+ entry via CRAC channels” value in data set [1] (5 μM) is listed as “inhibits Ca^2+ entry via CRAC channels”. Further, the “block of Ca2+ entry” value in data set [1] (concentrations <5 μM) was 50-100 fold. In data set [2], the “effect on cellular eVP40 expression/accumulation” value was “without any effect on cellular VP40 expression” and the “inhibition of eVP40 VLP formation” value was “dose dependent inhibition of eVLP formation”. In data set [2] (concentrations <5 μM), the “block of eVP40 production” value is reported as 50-100 fold.
In the case of `COc1ccc(OC)c(-c2ccc(NC(=O)c3ccncc3F)cc2)c1` [Synta66, N-(2′,5′-dimethoxy[1,1′-biphenyl]-4-yl)-3-fluoro-4-pyridinecarboxamide], the “inhibition of store-operated Ca2+ entry via CRAC/Orai channels” value in data set [1] is on record as “blocks Ca^2+ entry following Tg stimulation without affecting its release from the ER; also recorded: inhibition of Ca^2+ entry via CRAC channels”. Moreover, the “effect on cellular eVP40 expression/accumulation” value in [2] is “neither 2-APB nor Synta66 inhibited cellular accumulation”. Also, in data set [3], the “effect on cellular expression of VSV M protein” value is given as “without affecting expression of VSV M”, the “inhibition of live VSV budding / titers” value is “dose-dependent inhibition of VSV budding; also recorded: inhibited VSV titers” and the “reduction in budding of live VSV” value is recorded as “dose-dependent reduction in budding of live Vesicular Stomatitis Virus”. Also, the “inhibition of live LASV budding and spread” value in data set [14] is listed as “steep dose-dependent inhibition; also recorded: dose-dependent reduction”. For the same compound, the “inhibition of live JUNV budding and spread” value in data set [15] is “steep dose-dependent inhibition; also recorded: dose-dependent reduction”. In data set [5], the “cellular expression of JUNV glycoprotein (GP)” value was “No effect” and the “reduction of live Junin virus (Candid-1) foci / budding” value was “dose-dependent reduction in the number of Junin foci; also recorded: reduces the number of JUNV foci in a dose-dependent manner”. Also, the “inhibition of live EBOV budding and spread” value in [16] is given as “steep dose-dependent inhibition; also recorded: dose-dependent reduction”. In [7], the “effect on cellular mVP40 accumulation” value is “neither 2-APB nor Synta66 inhibited cellular accumulation”. Besides, the “inhibition of live MARV budding and spread” value in data set [17] is reported as “steep dose-dependent inhibition; also recorded: dose-dependent reduction”. Moreover, in data set [18], the “VP40-induced membrane protrusions / VLP structures at the plasma membrane” value is recorded as “not prevelant; also recorded: inhibits the formation of VP40-induced membrane protrusions; also recorded: inhibition of EBOV VP40 protrusions from the plasma membrane; also recorded: reduces Ebola VP40-mediated virus-like particle formation at the plasma membrane”; the “VP40 expression and membrane localization” value is on record as “no difference in membrane localization of eVP40; also recorded: no apparent effect on VP40 expression or membrane localization; also recorded: does not result in altered expression of Ebola VP40 (green) at the plasma membrane”.
As to `Nc1ccc(C(=O)Nc2cccc(-c3nc(N4CCOCC4)c4oc5ncccc5c4n3)c2)cn1` [YM201636], the “inhibition of eVP40 VLP formation” value in data set [2] is “dose-dependent reduction of Ebola VP40 VLP production”. In addition, in data set [19], the retrovirus budding result was “inhibited retrovirus budding”.
`C[C@H](CCC(=O)O)C[C@H](C)C[C@H](C)C(=O)/C=C(\O)[C@H](C)C[C@H](C)C/C=C/[C@@H](C)[C@@H](O)[C@@H](C)[C@@H](O)C[C@@H]1CC[C@@](C)([C@H]2CC[C@@](C)([C@@H](C)O)O2)O1` [ionomycin]: the “rescue of VP40-APT/PY VLP budding mediated by the Bro1-V fragment of Alix” value in data set [6] is reported as “did not enhance rescue”.
